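Exposure lasted 48 hours, with cells grown in 96-well plates and compounds tested at five concentrations. At the TGI there is no net growth.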
Key:
Assay in all cases: NCI anticancer screen, dose series, 48 h
786-0 renal = test system: 786-0 renal
A498 renal = test system: A498 renal
A549 NSCLC = test system: A549 NSCLC
ACHN renal = test system: ACHN renal
BT-549 breast = test system: BT-549 breast
CAKI-1 renal = test system: CAKI-1 renal
CCRF-CEM leukemia = test system: CCRF-CEM leukemia
COLO 205 colon = test system: COLO 205 colon
DU-145 prostate = test system: DU-145 prostate
EKVX NSCLC = test system: EKVX NSCLC
HCC-2998 colon = test system: HCC-2998 colon
HCT-116 colon = test system: HCT-116 colon
HCT-15 colon = test system: HCT-15 colon
HL-60(TB) leukemia = test system: HL-60(TB) leukemia
HOP-62 NSCLC = test system: HOP-62 NSCLC
HOP-92 NSCLC = test system: HOP-92 NSCLC
HS 578T breast = test system: HS 578T breast
HT29 colon = test system: HT29 colon
IGROV1 ovarian = test system: IGROV1 ovarian
K-562 leukemia = test system: K-562 leukemia
KM12 colon = test system: KM12 colon
LOX IMVI melanoma = test system: LOX IMVI melanoma
M14 melanoma = test system: M14 melanoma
MALME-3M melanoma = test system: MALME-3M melanoma
MCF7 breast = test system: MCF7 breast
MDA-MB-231 breast = test system: MDA-MB-231 breast
MDA-MB-435 = test system: MDA-MB-435
MDA-N = test system: MDA-N
MOLT-4 leukemia = test system: MOLT-4 leukemia
NCI-H226 lung = test system: NCI-H226 lung
NCI-H23 lung = test system: NCI-H23 lung
NCI-H460 lung = test system: NCI-H460 lung
NCI-H522 lung = test system: NCI-H522 lung
NCI/ADR-RES ovarian = test system: NCI/ADR-RES ovarian
OVCAR-3 ovarian = test system: OVCAR-3 ovarian
OVCAR-4 ovarian = test system: OVCAR-4 ovarian
OVCAR-5 ovarian = test system: OVCAR-5 ovarian
OVCAR-8 ovarian = test system: OVCAR-8 ovarian
PC-3 prostate = test system: PC-3 prostate
RPMI-8226 leukemia = test system: RPMI-8226 leukemia
RXF 393 renal = test system: RXF 393 renal
SF-268 CNS = test system: SF-268 CNS
SF-295 CNS = test system: SF-295 CNS
SF-539 CNS = test system: SF-539 CNS
SK-MEL-2 melanoma = test system: SK-MEL-2 melanoma
SK-MEL-28 melanoma = test system: SK-MEL-28 melanoma
SK-MEL-5 melanoma = test system: SK-MEL-5 melanoma
SK-OV-3 ovarian = test system: SK-OV-3 ovarian
SN12C renal = test system: SN12C renal
SNB-19 CNS = test system: SNB-19 CNS
SNB-75 CNS = test system: SNB-75 CNS
SR leukemia = test system: SR leukemia
SW-620 colon = test system: SW-620 colon
T-47D breast = test system: T-47D breast
TK-10 renal = test system: TK-10 renal
U251 CNS = test system: U251 CNS
UACC-257 melanoma = test system: UACC-257 melanoma
UACC-62 melanoma = test system: UACC-62 melanoma

CCN(CC)CCn1ncc2c3c(=O)c4cccnc4n(CCN(CC)CC)c3ccc21
TGI (786-0 renal): > 10 µM | TGI (A498 renal): > 10 µM | TGI (A549 NSCLC): > 10 µM | TGI (ACHN renal): > 10 µM | TGI (BT-549 breast): > 10 µM | TGI (CAKI-1 renal): > 10 µM | TGI (CCRF-CEM leukemia): > 10 µM | TGI (COLO 205 colon): 6.67 µM | TGI (DU-145 prostate): > 10 µM | TGI (EKVX NSCLC): > 10 µM | TGI (HCC-2998 colon): > 10 µM | TGI (HCT-116 colon): > 10 µM | TGI (HCT-15 colon): > 10 µM | TGI (HL-60(TB) leukemia): > 10 µM | TGI (HOP-62 NSCLC): > 10 µM | TGI (HOP-92 NSCLC): > 10 µM | TGI (HS 578T breast): > 10 µM | TGI (HT29 colon): > 10 µM | TGI (IGROV1 ovarian): > 10 µM | TGI (K-562 leukemia): > 10 µM | TGI (KM12 colon): > 10 µM | TGI (LOX IMVI melanoma): > 10 µM | TGI (M14 melanoma): > 10 µM | TGI (MALME-3M melanoma): > 10 µM | TGI (MCF7 breast): > 10 µM | TGI (MDA-MB-231 breast): > 10 µM | TGI (MDA-MB-435): > 10 µM | TGI (MDA-N): > 10 µM | TGI (MOLT-4 leukemia): > 10 µM | TGI (NCI-H226 lung): > 10 µM | TGI (NCI-H23 lung): > 10 µM | TGI (NCI-H460 lung): > 10 µM | TGI (NCI-H522 lung): > 10 µM | TGI (NCI/ADR-RES ovarian): > 10 µM | TGI (OVCAR-3 ovarian): > 10 µM | TGI (OVCAR-4 ovarian): > 10 µM | TGI (OVCAR-5 ovarian): > 10 µM | TGI (OVCAR-8 ovarian): > 10 µM | TGI (PC-3 prostate): > 10 µM | TGI (RPMI-8226 leukemia): > 10 µM | TGI (RXF 393 renal): > 10 µM | TGI (SF-268 CNS): > 10 µM | TGI (SF-295 CNS): > 10 µM | TGI (SF-539 CNS): > 10 µM | TGI (SK-MEL-2 melanoma): > 10 µM | TGI (SK-MEL-28 melanoma): > 10 µM | TGI (SK-MEL-5 melanoma): > 10 µM | TGI (SK-OV-3 ovarian): > 10 µM | TGI (SN12C renal): > 10 µM | TGI (SNB-19 CNS): > 10 µM | TGI (SNB-75 CNS): > 10 µM | TGI (SR leukemia): > 10 µM | TGI (SW-620 colon): > 10 µM | TGI (T-47D breast): > 10 µM | TGI (TK-10 renal): > 10 µM | TGI (U251 CNS): > 10 µM | TGI (UACC-257 melanoma): > 10 µM | TGI (UACC-62 melanoma): > 10 µM

Reference: PubChem BioAssay (NCI)
